Earlier results on one molecule are cited in patent US11583521B2, “Long-acting injection dosage form of beta 3 adrenoreceptor agonists” (Jubilant Pharma Holdings Inc., priority 2020, dated 2023).

The conditions of series [1]: presence of food in the GI tract.
For series [2] the following is noted: neutral to acidic pH.

Each structure is given as a SMILES string.

Consider `Nc1nc(CC(=O)Nc2ccc(CCNC[C@H](O)c3ccccc3)cc2)cs1` [Mirabegron, (R)-2-(2-aminothiazol-4-yl)-4′-{2-[(2-hydroxy-2 phenylethyl)amino]ethyl}acetanilide], for which the “bioavailability, effect of food” value in series [1] is listed as “affected by the presence of food in the GI (Gastro-Intestinal) tract”. Further, the solubility in water result in series [2] is “soluble in water between neutral to acidic pH”.
